Assays:
rabbit corneas = assay: Wound closure of rabbit corneas wounded with ethanol or N-heptanol combined with mechanical debridement; type: in vivo, New Zealand white rabbits; conditions: C646 10 μM applied 3-times/day to the eye, vs DMSO, n=4
Text: FIGS. 6A and 6B illustrate the impact of C646 on rabbit corneas wounded with either ethanol or N-heptanol combined to mechanical debridement. Rabbit corneas were wounded with ethanol (70%) or N-heptanol (100%) and mechanically debrided with a scalpel blade (crescent type). The rabbits were then divided into two groups: control corneas treated with DMSO or corneas treated with C646 (10 μm). n=4 for each conditions tested. (A) Fluorescein staining of corneas surgically wounded using either ethanol or N-heptanol combined with debridement using a crescent blade and treated with 10 μM C646. Wounded eyes were photographed using a slit lamp. (B) Graph representation of the remaining wounded corneal area (%) for each condition used in (A).
FIGS. 7A and 7B illustrate the impact of C646+SC79 on wounded rabbit corneas combined to mechanical debridement. Rabbit corneas were wounded with ethanol (70%) and mechanically debrided with a scalpel blade (crescent type). The rabbits were then divided into five groups: control corneas treated with DMSO, corneas treated with C646 (1 μM) and SC-79 (1 μM), corneas treated with C646 (1 μM) and SC-79 (10 μM), corneas treated with C646 (1 μM) and SC-79 (100 μM) and corneas treated with C646 (1 μm) and SC-79 (1 mM). n=4 for DMSO and n=5 for each remaining conditions tested. […]

[1] = system: tissue-engineered human corneas; assay: Wound closure of punch-wounded tissue-engineered human corneas; type: cell-based; conditions: 8-mm punch wound; compounds in culture medium at 2x reported IC50 (GDC-0068 36 nM; C646 800 nM; SC79 10 μM along with C646 800 nM); monitored over 4 days; n=4
Experimental: FIGS. 5A to 5C illustrate the pharmacological alteration of Akt and CREB on wound closure dynamic. (A) Left panel: Tissue-engineered human corneas (TEC) (four reconstructed corneas per condition) were wounded as in FIG. 2 and then maintained in culture medium supplemented with […] (36 nM, thin line), a pharmacological inhibitor of Akt phosphorylation, and C646 (800 nM, broken line), an inhibitor of CREB phosphorylation. Wounded corneas used as controls were exposed solely to the vehicle (DMSO, thick line). Wound closure was monitored over a 4-day period. Right panel: Measurement of wound surface remaining at each day using the ImageJ64 software (n=4). (B) Left panel: TECs were wounded as in (A) and maintained in culture medium containing C646 (800 nM) along with the AKT agonist SC79 (10 μM) (thin line) or DMSO (broken line). Wound closure was monitored as in (A). Right panel: Measurement of wound surface remaining at each day using the ImageJ64 software (n=4). (C) Composite image showing a complete view of the wounded TECs exposed either to the vehicle (DMSO) or pharmacological compounds (C646, GDC0068 or the combination of C646 and SC79) 4 days following corneal damage (sections were stained with Masson's trichrome; cells are pink and collagen is bluish). The wound margin created by the biopsy punch is indicated.
The tissue-engineered, two-layers 3D human corneas that have been used as a biomaterial were produced following the self-assembly approach (see FIG. 1). Briefly, corneal fibroblasts were seeded and cultured in fibroblast growth medium supplemented with 50 μg/ml ascorbic acid (Sigma, Oakville, Ont., Canada) for 35 days. Ascorbic acid allows fibroblasts to secrete and lay down their own ECM. After peeling from the flasks, two tissue sheets were superimposed to form a reconstructed stroma and were cultured for another week so that they could adhere to each other. […]
The wound healing of in vitro reconstructed cornea was studied. […] Wound healing was monitored daily with microphotographs. […]

mouse model of stroke = conditions: cited from earlier work
Akt = conditions: cell based assays; cited from earlier work

SMILES | wound closing time (rabbit corneas; ethanol (70%) injury combined with mechanical debridement) | wound closure (rabbit corneas; n-heptanol (100%) injury combined with mechanical debridement) | wound closure when compared to control (DMSO) [1] | neuronal death (mouse model of stroke) | cytosolic Akt signaling (Akt)
CC1=NN(c2ccc(C(=O)O)cc2)C(=O)C1=Cc1ccc(-c2cc(C)c(C)cc2[N+](=O)[O-])o1 [C646, 4-[4-[[5-(4,5-Dimethyl-2-nitrophenyl)-2-furanyl]methylene]-4,5-dihydro-3-methyl-5-oxo-1H-pyrazol-1-yl]benzoic acid] | clear reduction in the wound closing time | no significant impact on wound closure | accelerated wound closure |  | 
CC(C)NC[C@@H](C(=O)N1CCN(c2ncnc3c2[C@H](C)C[C@H]3O)CC1)c1ccc(Cl)cc1 [GDC-0068] |  |  | delayed wound closure |  | 
CCOC(=O)C1=C(N)Oc2ccc(Cl)cc2C1C(C#N)C(=O)OCC (stereo not shown) [SC-79, Ethyl-2-amino-6-chloro-4-(1-cyano-2-ethoxy-2-oxoethyl)-4H-chromene-3-carboxylate] |  |  | accelerated wound closure | prevents neuronal death | induces cytosolic Akt signaling

Source: patent US10537547B2, “Compositions favoring wound repair” (UNIVERSITÉ LAVAL, priority 2015, dated 2020)
